These results are taken from patent US8101605B2, “SHIP1 modulators and methods related thereto” (Aquinox Pharmaceuticals Inc., priority 2009, dated 2012).

One experiment addresses T1, His-hSHIP1 enzyme (Homo sapiens, UniProt Q92835).
T1 sequence (Q92835 1-1189): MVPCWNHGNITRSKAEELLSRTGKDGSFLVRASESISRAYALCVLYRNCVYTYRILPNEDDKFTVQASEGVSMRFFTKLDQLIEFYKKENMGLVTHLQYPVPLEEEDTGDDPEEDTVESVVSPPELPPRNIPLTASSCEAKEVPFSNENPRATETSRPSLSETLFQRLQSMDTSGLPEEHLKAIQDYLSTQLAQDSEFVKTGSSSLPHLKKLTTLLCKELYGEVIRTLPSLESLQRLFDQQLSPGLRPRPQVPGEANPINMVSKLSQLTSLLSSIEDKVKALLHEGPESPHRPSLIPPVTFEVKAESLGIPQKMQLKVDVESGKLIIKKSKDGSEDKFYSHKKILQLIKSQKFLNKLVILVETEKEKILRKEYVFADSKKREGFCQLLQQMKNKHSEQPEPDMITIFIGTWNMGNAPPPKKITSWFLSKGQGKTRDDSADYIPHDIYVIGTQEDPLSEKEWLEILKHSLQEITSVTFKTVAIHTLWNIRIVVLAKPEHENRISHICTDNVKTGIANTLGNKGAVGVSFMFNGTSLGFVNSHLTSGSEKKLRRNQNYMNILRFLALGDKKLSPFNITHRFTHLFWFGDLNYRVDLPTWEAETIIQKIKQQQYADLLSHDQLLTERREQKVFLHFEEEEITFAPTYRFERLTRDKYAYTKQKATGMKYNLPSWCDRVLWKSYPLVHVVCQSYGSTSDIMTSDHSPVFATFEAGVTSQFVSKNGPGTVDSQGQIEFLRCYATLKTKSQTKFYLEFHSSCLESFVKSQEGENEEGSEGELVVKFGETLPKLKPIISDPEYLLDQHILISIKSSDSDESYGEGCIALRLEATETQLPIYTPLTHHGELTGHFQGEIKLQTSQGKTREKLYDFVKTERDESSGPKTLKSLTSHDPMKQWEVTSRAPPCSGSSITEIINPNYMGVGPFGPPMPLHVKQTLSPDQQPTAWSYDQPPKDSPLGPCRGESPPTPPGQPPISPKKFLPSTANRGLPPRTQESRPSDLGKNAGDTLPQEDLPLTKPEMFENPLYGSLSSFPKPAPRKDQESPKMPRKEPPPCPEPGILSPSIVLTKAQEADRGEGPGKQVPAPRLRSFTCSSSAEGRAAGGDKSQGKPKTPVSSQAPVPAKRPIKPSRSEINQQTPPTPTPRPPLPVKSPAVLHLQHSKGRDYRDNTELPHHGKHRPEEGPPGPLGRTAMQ
In words: His-hSHIP1 phosphatase activity assay (IP4 substrate, Biomol Green). The experiment is classed as biochemical. Particulars: percentage increase relative to background; concentrations ≦300 μM. The essentials:
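His-hSHIP1 (15–20 ng) was incubated with IP4 (50 μM final) and compound (0–300 μM final, from 10% ethanol solutions) in 20 mM Tris-HCl, 10 mM MgCl2 pH 7.5, 0.02% Tween 20 for 15 min at 37 °C. Released phosphate was read with Biomol Green at 650 nm. Activation is % increase over background, scored + (<50%), ++ (≥50% but <65%), +++ (≥65%).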

Experiment [1] concerns allergen-induced passive cutaneous anaphylaxis. In words: Passive cutaneous anaphylaxis in mice. The experiment is classed as in vivo. The settings on record: oral gavage, doses less than 20 mg/kg. The procedure: The activity of representative compounds on passive cutaneous anaphylaxis in mice was evaluated according to the procedures disclosed by Ovary, J Immunol 81, 355-357, 1958 and Halpern et al., Br J Pharmacol Chemother 20, 389-398, 1963, both of which are incorporated herein by reference in their entirety. To induce a passive cutaneous anaphylaxis, mice underwent intradermal ear inoculation on their right ear with 25 ng in 20 μL of anti-DNP-IgE. The left ears were untreated and served as negative controls. Twenty-four hours after inoculation, all mice were administered test compound by oral gavage (PO). Sixty minutes after oral administration, mice were given a tail vein injection of 2% Evan's blue (0.2 μm filtered, in 200 μL saline) followed by a second tail IV injection of 100 μg DNP-HSA (in 200 μL). Sixty minutes following the DNP-HSA injection, mice were euthanized using CO2 inhalation. Subsequently, ear biopsies were performed by taking four millimetre punches from both ears, which then underwent Evan's Blue extraction using formamide incubation in 96 well plates. Eighty μL of eluents were transferred to flat-bottom 96-well plates and absorbance read using SpectraMax M5 spectrophotometer (Molecular Devices, Sunnyvale, Calif., USA) at 620 nm. Background readings from all samples were taken at 740 nm and subtracted from the 620 nm readings. Data were reported as OD. […] Scoring in Table 4 is expressed as follows: + (1-30% inhibition); ++ (31-50% inhibition); +++ (>50% inhibition).

For the compound `Cc1cc(O)cc2c1[C@]1(C)CC[C@H]3C(C)(C)CCC[C@]3(C)[C@H]1CO2` [Compound No. 6, (1R,10R,11S,16S)-1,3,11,15,15-pentamethyl-8-oxatetracyclo[8.8.0.0^2,7.0^11,16]octadeca-2,4,6-trien-5-ol], on His-hSHIP1 enzyme, the “Scoring: percent (%) activation of His-hSHIP1 enzyme” value is “+ (<50%)”. Further, the “Scoring: inhibition of passive cutaneous anaphylaxis” value in experiment [1] is reported as “++ (31-50% inhibition)”.
For the compound `CC1(C)CCC[C@]2(C)[C@H]3CS(=O)(=O)c4cc(O)cc(O)c4[C@]3(C)CC[C@@H]12` [Compound No. 28, (1R,10R,11S,16S)-3,5-dihydroxy-1,11,15,15-tetramethyl-8-thiatetracyclo[8.8.0.0^2,7.0^11,16]octadeca-2,4,6-triene-8,8-dione], on His-hSHIP1 enzyme, the “Scoring: percent (%) activation of His-hSHIP1 enzyme” value is on record as “+++ (≧65%)”. The “Scoring: inhibition of passive cutaneous anaphylaxis” value in experiment [1] is listed as “+++ (>50% inhibition)”.
